As usually defined, the melting point is the temperature, or range, at which the solid turns liquid.

For `CC(=O)Nc1cc(C)cc(OCc2ccccc2)c1C`, the melting point lay in the range of 139 to 140 °C. On to `CCNC(=O)NCc1cccc2c1C(=O)N(C1(C)CCC(=O)NC1=O)C2=O` (configuration not stated), for which the melting point lay in the range of 220 to 222 °C. In the case of `O=C(NC1CCCCCCC1)NC1CCCCC1` it was 194 °C; in that of `Cc1cc2c(cc1Cl)N(C)C(=O)C2(NC(=O)CN1CCN(C)CC1)c1ccc(Cl)cc1` (configuration not stated), 217 to 219 °C; in that of `CCCCn1c(=O)c(NC(=O)Nc2c(C(C)C)cccc2C(C)C)c(-c2cccc(OCCC)c2)c2cccnc21`, 154 to 156 °C. In the case of `COC(=O)CCCCCCCNC(=O)C(CSC(C)=O)Cc1ccccc1` (configuration not stated) it was 44 to 45 °C; in that of `N#CC1(N2CCCC2)CCC2(CC1)OCCO2`, 65 to 67 °C; in that of `Oc1cccc(CCc2nc(-c3ccccc3)c(-c3ccccc3)s2)c1`, 166 to 168 °C.

`COC(=O)c1c(Cl)cc(Cl)cc1NC(=O)C(C)c1ccccc1` (configuration not stated) displayed a melting point of 83 to 84 °C. To `COC(=O)C1(CCCN2CCN(c3ccccc3)CC2)Sc2ccccc2CCC1=O` (configuration not stated) belongs 101 to 103 °C; to `COc1cccc(CNC(=O)C(C)(C)COc2cccc3nc(C)c(C(=O)O)c(N)c23)c1`, 172 to 174 °C; to `Nc1sc2c(c1C(=O)c1cccs1)CCC(Cc1ccccc1)C2` (configuration not stated), 116 to 118 °C.

In turn, `N#CCCCCc1csc(NC(=N)N)n1` yielded a melting point of 104 to 105 °C. `NS(=O)(=O)c1cc(C(=O)O)cc(SCc2ccccc2)c1-c1ccccc1` returned a melting point of 114 to 120 °C. To `CC(C)Oc1ccnc2[nH]cc(-c3ccnc(N)n3)c12` belongs > 210 °C; to `O=C1c2c(c(=O)n3nc(-c4ccccc4)cc3n2Cc2ccccc2)CN1c1ccccc1`, 271 to 272 °C. In the case of `Cc1nnc(-c2ccc3occ(-c4ccc(S(C)=O)cc4Cl)c3c2)o1` (configuration not stated) it was 175 to 176 °C; in that of `CN(C)Cc1ccc(CSCCNc2ncc([N+](=O)[O-])c(=O)[nH]2)o1`, 201 to 204 °C; in that of `CN(Cc1c2ccccc2cc2ccccc12)C(=O)Nc1ccccc1CCc1cc(C(C)(C)C)c(O)c(C(C)(C)C)c1`, 205 to 206 °C. On to `NS(=O)(=O)Oc1cccc(Cl)c1Cl`, for which the melting point fell in the range of 116 to 117 °C.

As to `N#Cc1ccc2c(c1)NC(=O)C(O)C2` (configuration not stated), the melting point was > 250 °C. On to `O=c1nc(Nc2ccc(Cl)cc2)sc2ncccc12`, for which the melting point lay within 278 to 279 °C. Compound `CCc1cccc(C)c1S(=O)(=O)c1nn(C(=O)N(CC)CC)cc1C#N` gave a melting point of 101 to 102 °C.

In the case of `O=C(O)C(Cc1cccc(F)c1)c1ccc(F)cc1` (configuration not stated), the melting point was 92 to 94 °C.

With `COc1c(C)cc(-c2cncc(OC3SCC(OC(C)=O)C(OC(C)=O)C3OC(C)=O)c2)cc1C` (configuration not stated), the melting point amounted to 146 °C.

In turn, `N#CCOc1cccc2onc(N)c12` had a melting point of 133 to 136 °C. To `Cc1cc(NC(C)(C)C)nc(Cl)c1C#N` belongs 109 °C; to `COC(=O)COc1ccc(CCCO)cc1`, 47 to 48 °C. Compound `CCOC(=O)CC1CN=C(c2cc3c(C)ccc(N(C)S(=O)(=O)c4cccs4)c3[nH]2)S1` (configuration not stated) registered a melting point of 109 to 110 °C. To `CCN1CCN(C(=O)N2CCC(N3N=C(c4ccc(OC)c(OC)c4)[C@H]4CC=CC[C@H]4C3=O)CC2)C(=O)C1=O` belongs 226 to 228 °C; to `COc1c(-c2cc3c(s2)CCC(C)(C)C3N=[N+]=[N-])ccc2c(=O)c(C(=O)O)cn(C3CC3)c12` (configuration not stated), 89 to 90 °C. For `COC(=O)N[C@H](C(=O)N[C@@H](Cc1ccccc1)[C@@H](O)CN(Cc1ccc(-c2nccs2)cc1)NC(=O)OC(C)(C)C)C(C)C`, the melting point lay in the range of 178 to 179 °C. To `O=c1ccc2c(-c3cccc(O)c3)nccc2[nH]1` belongs 297 to 299 °C. In the case of `CCCn1c(=O)c(-c2ccccc2)c2n(c1=O)CCCS2(=O)=O` it was 179 to 180 °C; in that of `Cc1[nH]c2ccccc2c1CCN1CCN(C(c2ccc(F)cc2)c2ccc(F)cc2)CC1`, 65 to 73 °C. To `CN1CCC(c2n[nH]c3ccc([N+](=O)[O-])cc23)CC1` belongs 237 to 239 °C. Take `O=C(N[C@H](Cc1ccc(C(F)(F)F)cc1)[C@@H](O)c1ccc(F)cc1)c1cccc2c1C(=O)c1ccccc1-2` (racemic): the melting point was 185 to 186 °C. `CC(C)(N)c1ccc(-c2nc(Nc3ccc(F)cc3)ncc2C#N)cc1` had a melting point of 228 to 229 °C. In the case of `Fc1ccc(C(c2ccc(F)cc2)N2CCN(CC=C3CCc4ccccc43)CC2)cc1` it was 138 to 142 °C; in that of `COC(=O)c1cscc1Nc1ccc(F)cc1[N+](=O)[O-]`, 164 °C. `O=C(Nc1cccc(CC(=O)OCc2ccccc2)c1)NC1C(=O)N(CC(=O)N2CCCC2)c2ccccc2N(c2ccccc2F)C1=O` (configuration not stated) returned a melting point of 104 to 106 °C. In the case of `COc1ccc(F)cc1C(C)(C)c1cc(Cl)ccc1O` it was 97 °C; in that of `O=C1Nc2c(O)cccc2C(=O)N2CCCC12` (configuration not stated), 280 to 282 °C; in that of `O=C(c1ccc(Cl)cc1)c1c(Cl)cc2n1CCC2C(=O)O` (configuration not stated), 197 °C.

With `NCCOc1ccc(C(=C(c2ccc(F)cc2)C(F)(F)F)c2ccccc2)cc1`, the melting point was in the range of 83 to 89 °C. In the case of `Cc1c(CC(=O)O)oc2ccc(Cl)cc12` it was 149 to 150 °C.

Regarding `CCc1nc2c(o1)C(=O)C(C)=C(NCCN(C)C)C2=O`, the melting point stood at 135 °C. In the case of `CS(=O)(=O)Nc1ccc(F)c(C(=O)CBr)c1` it was 110 to 113 °C; in that of `COc1cc(C(=O)c2c[nH]c(-c3ccc(Cl)cc3)n2)cc(OC)c1OC`, 193 to 195 °C; in that of `Clc1ccc2c(c1)N(c1ncnc3c(Cl)cccc13)CC2`, 190 °C. In the case of `O=C1NCc2c1c1c(c3[nH]c4ccccc4c23)Cc2ccc(Br)cc2-1` it was > 340 °C.

For the compound `COC1CC2(C)C(CCC3C4CCC(C(=O)CBr)C4(C)CC(=O)C32)CC1O` (configuration not stated), the melting point was in the range of 185 to 188 °C. Take `Cc1ccc(C(=O)NC(NC(=S)Nc2cccc([N+](=O)[O-])c2)C(F)(F)F)cc1` (configuration not stated): the melting point lay within 185 to 186 °C.

On to `COC(=O)C(=O)c1cc(C(C)(C)C)c(O)c(C(C)(C)C)c1`, for which the melting point was 82.5 to 84 °C. Regarding `c1ccc(SCCn2c(-c3ccccc3)nc3cc(CN4CCN(C(c5ccccc5)c5ccccc5)CC4)ccc32)cc1`, the melting point was 118 to 125 °C. To `COCCNC(N)=Nc1nc(-c2cccc(CNC(C)=O)c2)cs1` belongs 123 to 124 °C; to `COC(=O)c1ccccc1S(=O)(=O)Nn1c(C)nn(-c2nc(OC)cc(OC)n2)c1=O`, 174 °C; to `NS(=O)(=O)c1cccc(C=O)c1`, 108 to 109 °C. In the case of `CCCn1cc(C(=O)NCc2ccc(Cl)cc2)c(=O)c2cc(CO)sc21` it was 174 to 175 °C; in that of `Cc1cc(N)nc(CCc2nc3cc(-c4ccc(S(=O)(=O)N5CCCCC5)cc4)cnc3[nH]2)c1`, 233 °C. Compound `Cc1ccc(C[C@@H]2CN(CCCN3C(=O)c4ccccc4C3=O)CCN2C(=O)c2cc(C(F)(F)F)cc(C(F)(F)F)c2)cc1C` gave a melting point of 146 to 147 °C. To `COc1cc(Nc2nccc(-c3ccc(NCCN4CCCC4)nc3)n2)cc(OC)c1OC` belongs 165 to 166 °C; to `COCCCOc1cc(CC(CC(NC(=O)OC(C)(C)C)C2CC(C)C(=O)O2)C(C)C)ccc1OC` (configuration not stated), 86 to 87 °C; to `NS(=O)(=O)c1ccccc1CCCl`, 168 to 171 °C.

With `COc1cccc(NC(=O)C(F)(F)F)c1`, the melting point is 115 °C. To `O=C(O)c1ccc(C=C2CCN(C(=O)c3ccc(Cl)cc3)CC2)c(F)c1` belongs 170 to 173 °C; to `COc1ccc(CC(=O)O)c(OCCc2ccccc2)c1`, 107 to 108 °C.

Take `CCCc1c[nH]c2cc(CO)ccc12`: the melting point lay in the range of 68 to 71 °C. In turn, `CS(=O)(=O)c1ccc(-n2nc(CNC(=O)NC34CC5CC(CC(C5)C3)C4)cc2-c2ccccc2)cc1` displayed a melting point of 150 to 155 °C. The compound `O=C1CCC(c2ccc(OCCCN3C(=O)c4ccccc4C3=O)c(Cl)c2)=NN1` returned a melting point of 230 to 232 °C.

Regarding `CC(C)(C)OC(=O)NC[C@H]1CC[C@H](CNS(=O)(=O)c2cccc3ccccc23)CC1`, the melting point was 199 to 200 °C.

In the case of `Cc1cc(S(=O)(=O)O)ccc1OCc1ccccc1C(=O)O`, the melting point was in the range of 242 to 244 °C. `CN(Cc1cc(Cl)c(O)c(Br)c1)C1CCCCC1`: the melting point fell in the range of 136 to 138 °C. In the case of `COc1ccc2c(c1)NC(=O)C2=Cc1[nH]c2c(c1CCC(=O)O)CCCC2` it was 263 to 266 °C; in that of `COC(=O)c1cc(C[C@@H]2COc3ccc(OCc4nc5cc(F)ccc5s4)cc3[C@@H]2O)ccc1OC` (relative stereo), 160 to 162 °C. `CC(C)(Cc1cccc2ccccc12)NC=O`: the melting point is 79 to 80 °C. The compound `CCN1CCC(c2nc(-c3ccncc3)c(-c3ccc(F)cc3)[nH]2)CC1` returned a melting point of 242 to 244 °C. With `Cc1cc(Cl)cc(C(=O)NC(C)(C#N)C2CC2)c1NC(=O)c1cc(C(F)(F)F)nn1-c1ncccc1Cl` (configuration not stated), the melting point lay in the range of 226 to 228 °C. In turn, `COc1ccc(-c2c3nn(-c4ccc(OC)cc4)c(=O)c-3c[nH]c2C)cc1` had a melting point of 274 to 282 °C. Turning to `NC(=O)c1cc(I)cc(I)c1O`, the melting point was 206 °C.

In turn, `CCCC(C)SC1NN=C(c2ccncc2)N1c1ccccc1` (configuration not stated) displayed a melting point of 96 to 97 °C. The compound `CCOC(=O)c1csnc1-c1ccc(OC)c(OC)c1` gave a melting point of 74 to 75.5 °C. In the case of `CCCCN(C)C(=O)CSCCCCCCOc1ccc(C2=C(c3ccccc3)CCCc3cc(O)ccc32)cc1` it was 103 to 105 °C; in that of `COc1cc(C(=O)CC(=O)c2ccc(O)cc2O)cc(OC)c1OC`, 284 to 286 °C; in that of `COc1ccc(OC)c2c1CC[C@](O)(C(C)=O)C2`, 117 to 120 °C. In turn, `CCCCOCCOc1ccc(-c2cnc(N3CCC(C)C3)c(/C=C(\C)C(=O)O)c2)cc1` (configuration not stated) returned a melting point of 106 to 108 °C. In the case of `Cn1c(=O)cc(-c2cccc(Cl)c2)c2cc(C(=O)c3ccc(I)cc3)ccc21` it was 184 °C.

These data come from a melting point compilation (Tetko et al.; mined from patent text by program, amines drawn as free bases though some values may be those of a salt).
